Patent US5059442A, “Primary amide esters as low calorie fat mimetics” (Nabisco Brands, Inc., priority 1989, dated 1991)

Experiments:
[1] = in vitro digestibility: hydrolysis with pancreatic lipase; format: in vitro ADME, porcine; settings: pig, pH 7.1 buffer, 37° C., same conditions as triolein control
Protocol: (§1) This example outlines the procedure for estimating the in vitro digestibility of the synthetic fat mimetics of this invention.
(§2) 1. Buffer: A pH 7.1 phosphate buffer is prepared by dissolving 6.8 g KH2 PO4 in 1 L of millipore filtered water (to yield 0.05 M phosphate). Fifty mg Ca(NO3)2 is added and 5.0 g cholic acid (Na salt, an ox bile isolate from Sigma) to give 0.3 mM Ca++ and 0.5 % cholic acid in 0.05 M phosphate. The pH is adjusted to approximately 7.1 with solid NaOH. Several drops of Baker "Resi-analyzed" toluene are added to prevent bacterial growth during storage at 3°-5° C. 2. Lipase: About 15 mg/mL commercial porcine pancreatic lipase from U.S. Biochemical Corporation is dissolved in buffer.
(§3) 3. Substrates and Standards: A 1.0 mL volumetric flask is charged with an amount of lipid substrate calculated to give a concentration of 200 nanomoles per microliter in Baker "Resianalyzed" toluene. (The proper concentration may be approximated by doubling the molecular weight of the lipid in question, dividing by 10, and diluting to the mark; this yields about 200 nanomoles per microliter.) This preparation affords the substrate to be used in the hydrolysis reactions.
(§4) Fatty acids and glyceride standards from Nu Chek or Sigma are prepared for elution on TLC plates (prewashed with 1:1 chloroform/methanol) by diluting the substrate solution with 10:1 toluene (1 part substrate plus 9 parts toluene) in septum vials.
(§5) In a 25 mL Erlenmeyer, emulsify 20 mL buffer and 40 microliters of substrate using an ultrasonic disrupter at a microtip maximum setting for approximately 10 seconds. […] Place in a 37° C. water bath and stir vigorously. After temperature equilibration, add 40 microliters of enzyme solution and start timing. Remove 5.0 mL aliquots at convenient time intervals for analysis. To establish a standard curve for triolein, aliquots are taken at 10, 20, 30 and 40 minutes.
(§6) Add the aliquot to a 15 mL glass centrifuge tube containing a drop of concentrated HCl. Add approximately 3 mL of a 2:1 mixture of CHCl3 :CH3 OH and shake vigorously. Centrifuge at approximately 5000 rpm for 5 minutes and transfer the bottom layer with a Pasteur pipet to a 5 mL septum vial. Repeat the extraction step once and combine the two bottom layers. Evaporate the solvent in nitrogen gas. After about half of the solvent is removed, add an equivalent volume absolute ethanol and continue evaporation in a nitrogen stream until dryness is achieved. Samples may be warmed with a heat gun to facilitate drying.
(§7) When the samples are dry, add exactly 200 microliters of toluene containing 10% DMSO, cap tightly, and spot TLC plate with 2.0 microliters per channel. […]

[2] = in vivo animal feeding study for caloric availability; design: species or system male Sprague-Dawley rats; settings: rats, diet of 50% fort and 21% test compound, 14 days; from weight gain and corn oil base line correlation
Text: This example illustrates how the novel fat mimetics of this invention are screened for caloric availability by a carefully controlled in vivo animal feeding study.
An experimental relationship between total calories ingested and animal body weight gain is established by monitoring the body weight gain associated with consumption of a nutritionally balanced diet containing varying concentrations of a reference substance such as corn oil which has a known caloric availability. Correlations between total calories ingested and body weight gain are excellent (r=0.99).
Caloric availability of a test material is evaluated by substituting a specific weight of the test material for the reference substance and observing the body weight gain. The gain in body weight is equated to a total number of calories using the correlation previously established for the reference data. The estimated number of calories ingested are divided by the weight of test material to give the apparent calories per gram for the test material. Generally speaking, in these bioavailability studies, the degree of perianal pelt soiling correlates with reduced bioavailability.
The test animals are six-week-old male Sprague-Dawley rats obtained from the Portage, Michigan facility of the Charles River Laboratories, Inc. After acclimation for 15 days, the test duration is 14 days. […]

[3] = tested on: porcine pancreatic lipase; assay: in vitro digestibility: hydrolysis with pancreatic lipase; format: in vitro ADME; settings: pH 7.1 buffer, 37° C., in 10 minutes
Protocol: as §1, §2, §3, §4, §5, §6, §7

[4] = rat, in vivo; cited from earlier work

metabolised [1] [%] | Compound | further results
50 | CCCCCCCC/C=C\CCCCCCCC(=O)NCC(COC(=O)CCCCCCC/C=C\CCCCCCCC)OC(=O)CCCCCCC/C=C\CCCCCCCC (stereo not drawn) [Example 2, 2,3-Bis(oleyoyloxy)propyl oleamide] | caloric availability (kcal/gram upon being metabolized) [2]: about 3.3 kcal/gram
50 | CCCCCCCC/C=C\CCCCCCCC(=O)NC(COC(=O)CCCCCCC/C=C\CCCCCCCC)COC(=O)CCCCCCC/C=C\CCCCCCCC [Example 3, 1,3-Bis(oleoyloxy)propyl 2-oleamide] | –
10 | CCCCCCCC/C=C\CCCCCCCC(=O)NC(C)(COC(=O)CCCCCCC/C=C\CCCCCCCC)COC(=O)CCCCCCC/C=C\CCCCCCCC [Example 4, 2-Methyl-1,3-bis(oleoyloxy)propyl 2-oleamide] | –
– | CCCCCCCC/C=C\CCCCCCCC(=O)OCC(COC(=O)CCCCCCC/C=C\CCCCCCCC)OC(=O)CCCCCCC/C=C\CCCCCCCC [triolein] | hydrolysis of triglyceride control [3]: substantially hydrolyzed
– | corn oil | caloric availability of reference substance [4]: 9.0 kcal/gm
